Assay results published in US20070155739A1, “Substituted bis-amide metalloprotease inhibitors” (ALANTOS PHARMACEUTICALS, INC., priority 2005, published 2007).
Like-named read-outs stand apart in the source and are kept apart here.

Legend:
[1] = target: MMP-13 (Homo sapiens, UniProt P45452); assay: Assay for determining MMP-13 inhibition (fluorogenic substrate); format: biochemical
Protocol: The MMP-13 inhibiting activity of the bis-amide metalloprotease inhibiting compounds of the present invention may be measured using any suitable assay known in the art. A standard in vitro assay for MMP-13 inhibiting activity is described in Example 999 and a description of the microsomal stability assay is described in Example 999a.
Assay for Determining MMP-13 Inhibition
The typical assay for MMP-13 activity is carried out in assay buffer comprised of 50 mM Tris, pH 7.5, 150 mM NaCl, 5 mM CaCl2 and 0.05% Brij-35. Different concentrations of tested compounds are prepared in assay buffer in 50 μL aliquots. 10 μL of 40 nM stock solution of MMP-13 enzyme is added to the compound solution. The mixture of enzyme and compound in assay buffer is thoroughly mixed and incubated for 20 minutes at room temperature. Upon the completion of incubation, the assay is started by addition of 40 μL of 12.5 μM stock solution of MMP-13 fluorogenic substrate (Calbiochem Cat. No. 444235). The time-dependent increase in fluorescence is measured at the 325 nm excitation and 393 nm emission by automatic plate multireader. The IC50 values are calculated from the initial reaction rates. Selectivity assays were run in a similar manner using MMP-1, MMP-3, MMP-8, MMP-12, MMP-14 and TACE.

[2] = Microsomal stability, rat microsomes; format: in vitro ADME; conditions: rat microsomes 0.3 mg/mL, 1 μM compound, 60 min at 37° C.
Protocol: (§1) Assay for Microsomal Stability
(§2) For microsomal stability testing 1 μM conzentration of compound and human or rat microsomes (0.3 mg/mL, BD bioscience) are used in the in vitro assay. To ensure proper energy supply for microsomal degradation of compound, an energy regenerating system comprised of NADP, glucose 6-phosphate and glucose 6-phosphate dehydrogenase is added to samples and suspension is incubated for 60 min at 37° C. in rotary shaker. After incubation time, acetonitrile containing internal standard is added to stop metabolization by precipitation of proteins. After centrifugation step, supernatant is analysed by LC-MS/MS and percentage of compound remaining is analysed.

[3] = Microsomal stability, human microsomes; format: in vitro ADME; conditions: human microsomes 0.3 mg/mL, 1 μM compound, 60 min at 37° C.
Protocol: as §1, §2

[4] = Microsomal stability, comparison in text (species not stated); format: in vitro ADME; conditions: compared with unsubstituted Example 1040d
Protocol: as §2

[5] = Cell viability, comparison; format: cell-based; conditions: compared with unsubstituted Example 1040d
[6] = Table 2, methyl substitution at R^2 or R^3, read-out: IC50 (nM), Comparison of MMP-13 Activity Versus Location of Substituent (R^2 or R^3)
[7] = Table 1, read-out: IC50 (nM), Summary of MMP-13 Activity for Compounds of Formula I

Row | Structure (SMILES) | Rat (%), microsomal stability, percentage of compound remaining [2] [%] | Human (%), microsomal stability, percentage of compound remaining [3] [%] | IC50 [1, 7] [nM] | further results
1 | COc1cccc(CNC(=O)c2cc(C(=O)N[C@H](C)c3ccc(-c4nnn[nH]4)cc3)ncn2)c1 (stereo in doubt) [Example 1006] | 70 | 93 | – | IC50 [1, 6]: > 100 nM
2 | Cc1cc(CNC(=O)c2cc(C(=O)N[C@@H](C)c3ccc(C(=O)O)cc3)ncn2)ccc1F [Example 1000] | – | – | < 200 | –
3 | Cc1cc(CNC(=O)c2cc(C(=O)N[C@@H](C(N)=O)c3ccc(-c4nnn[nH]4)cc3)ncn2)ccc1F [Example 1002] | – | – | < 10 | –
4 | O=C(NCc1ccc(F)cc1)c1cc(C(=O)N[C@@H](CO)c2ccc(-c3nnn[nH]3)cc2)ncn1 [Example 1004] | – | – | < 200 | –
5 | COc1cccc(CNC(=O)c2cc(C(=O)N[C@@H](C)c3ccc(-c4nnn[nH]4)cc3)ncn2)c1 [Example 1005] | – | – | – | IC50 [1, 6]: < 10 nM; microsomal stability, in words [4]: improvements; cell viability, in words [5]: improvements
6 | Cc1cc(CNC(=O)c2cc(C(=O)N[C@@H](C)c3ccc(-c4nnn[nH]4)cc3)ncn2)ccc1F [Example 1007] | – | – | < 10 | –
7 | C[C@H](NC(=O)c1cc(C(=O)NCc2ccc(F)cc2)ncn1)c1ccc(-c2nnn[nH]2)cc1 [Example 1007c] | 90 | 100 | – | –
8 | C[C@H](NC(=O)c1cc(C(=O)NCc2cccs2)ncn1)c1ccc(-c2nnn[nH]2)cc1 [Example 1007d] | – | – | < 1000 | –
9 | CCc1cc(CNC(=O)c2cc(C(=O)N[C@@H](C)c3ccc(-c4nnn[nH]4)cc3)ncn2)cs1 [Example 1007o] | – | – | < 200 | –
10 | Cc1cc(CNC(=O)c2cc(C(=O)N[C@@H](C)c3ccc(-c4noc(CCC(=O)O)n4)cc3)ncn2)ccc1F [Example 1021] | – | – | < 200 | –
11 | Cc1cc(CNC(=O)c2cc(C(=O)N[C@@H](C)c3ccc(C(=O)N4CCOCC4)cc3)ncn2)ccc1F [Example 1028e] | – | – | < 200 | –
12 | C[C@@H](NC(=O)c1cc(C(=O)NCc2ccc(-c3nnn[nH]3)cc2)ncn1)c1ccccc1 [Example 1040a] | – | – | – | IC50 [1, 6]: > 100 nM
13 | C[C@H](NC(=O)c1cc(C(=O)NCc2ccc(-c3nnn[nH]3)cc2)ncn1)c1ccccc1 [Example 1040b] | 96 | 96 | – | IC50 [1, 6]: < 10 nM
14 | COc1cccc(CNC(=O)c2cc(C(=O)NCc3ccc(-c4nnn[nH]4)cc3)ncn2)c1 [Example 1040d, pyrimidine-4,6-dicarboxylic acid 4-(3-methoxybenzylamide) 6-[4-(1H-tetrazol-5-yl)-benzylamide]] | 38 | 75 | – | –
15 | O=C(NCc1ccc(F)cc1)c1cc(C(=O)NCc2ccc(-c3nnn[nH]3)cc2)ncn1 [Example 1040e] | 58 | 98 | – | –
